From patent US20250237650A1 (priority 2021, published 2025)

What was measured:
[1] = system: WT, Alpha, Beta, Delta, and Omicron BA.1 spike proteins; format: binding, SARS-CoV-2
[2] = system: full-length trimeric Alpha, Beta, and Delta spikes; format: binding, SARS-CoV-2

Substance | binding affinities to VOC spikes (in words) [1] | binding affinity to variant spikes relative to WT spike [2]
ACE2 | within nanomolar range | –
heparin [HEP15, reference compound] | – | comparable binding affinity to WT spike
heparin [reference compound] | an increase in affinity between HEP and Omicron spike over Delta and other VOC spikes | –
